According to paper PMC7544826 (Communications Biology, 2020):

Tests used:
[1] = tested on: adenosine receptors; conditions: through the adenosine receptors; cited from earlier work
[2] = molecular target: T1, Notum (Homo sapiens, UniProt Q6P988, C330S); experiment: SPR equilibrium binding to biotinylated Notum on streptavidin chip; design: The human Notum enzyme core comprising amino acids S81–T451 with a C330S mutation; made in house; dialyzed conditioned medium used without purification; conditions: Fig 2a
T1 sequence (Q6P988 81-451 C330S): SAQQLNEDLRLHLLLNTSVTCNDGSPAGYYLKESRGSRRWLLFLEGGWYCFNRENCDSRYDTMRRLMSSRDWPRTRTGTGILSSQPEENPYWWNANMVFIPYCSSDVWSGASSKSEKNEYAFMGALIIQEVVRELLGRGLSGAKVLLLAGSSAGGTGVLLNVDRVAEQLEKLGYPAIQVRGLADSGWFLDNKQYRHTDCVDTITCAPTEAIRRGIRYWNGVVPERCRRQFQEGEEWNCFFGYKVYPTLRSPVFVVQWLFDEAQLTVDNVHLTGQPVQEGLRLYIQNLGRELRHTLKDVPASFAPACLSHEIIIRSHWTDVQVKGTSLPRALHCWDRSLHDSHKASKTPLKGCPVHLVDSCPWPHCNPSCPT

[3] = molecular target: T1, Notum; experiment: Thermal shift assay (SYPRO Orange) of Notum; conditions: for Thermoflour melting curve fluorescence of Notum: Fig 2c
Procedure: Reference wells, i.e. solutions without compounds were used to compare the melting temperature (Tm). The experiments were performed in triplicate.

[4] = tested on: brain; conditions: at plasma concentration 150 µM; cited from earlier work

SMILES: Cn1c(=O)c2c(ncn2C)n(C)c1=O [caffeine, 1,3,7-trimethylxanthine]
- Concentration at which CNS stimulating effects are apparent [1]: 2.5 µM
- SPR Response ([2]; caffeine conc. 2.861e-8 (unit not given)): 1.14
- SPR Response ([2]; caffeine conc. 5.722e-8 (unit not given)): 2.29
- SPR Response ([2]; caffeine conc. 1.144e-7 (unit not given)): 3.61
- SPR Response ([2]; caffeine conc. 2.289e-7 (unit not given)): 4.16
- SPR Response ([2]; caffeine conc. 4.578e-7 (unit not given)): 4.74
- SPR Response ([2]; caffeine conc. 9.155e-7 (unit not given)): 5.58
- SPR Response ([2]; caffeine conc. 1.831e-6 (unit not given)): 6.88
- SPR Response ([2]; caffeine conc. 3.662e-6 (unit not given)): 9.64
- SPR Response ([2]; caffeine conc. 7.324e-6 (unit not given)): 12.15
- SPR Response ([2]; caffeine conc. 1.465e-5 (unit not given)): 16.8
- SPR Response ([2]; caffeine conc. 2.93e-5 (unit not given)): 23.59
- SPR Response ([2]; caffeine conc. 5.859e-5 (unit not given)): 31.69
- SPR Response ([2]; caffeine conc. 0.0001172 (unit not given)): 41.28
- SPR Response ([2]; caffeine conc. 0.0002344 (unit not given)): 50.77
- SPR Response ([2]; caffeine conc. 0.0004687 (unit not given)): 61.29
- SPR Response ([2]; caffeine conc. 0.0009375 (unit not given)): 71.68
- SPR Response ([2]; caffeine conc. 0.001875 (unit not given)): 81.69
- Melting temperature (Tm) of Notum [3]: 66.4 °C
- Concentration from which the Tm of Notum starts to increase ([3]; 2-fold dilution series 1-1000 µM, dose-dependent): 32 µM
- Thermoflour melting curve fluorescence of Notum ([3]; compound 500 µM, Temperature 24.5): 709.927
- Thermoflour melting curve fluorescence of Notum ([3]; compound 500 µM, Temperature 25.5): 611.276
- Thermoflour melting curve fluorescence of Notum ([3]; compound 500 µM, Temperature 26.5): 506.395
- Thermoflour melting curve fluorescence of Notum ([3]; compound 500 µM, Temperature 27.5): 407.771
- Thermoflour melting curve fluorescence of Notum ([3]; compound 500 µM, Temperature 28.5): 329.046
- Thermoflour melting curve fluorescence of Notum ([3]; compound 500 µM, Temperature 29.5): 252.252
- Thermoflour melting curve fluorescence of Notum ([3]; compound 500 µM, Temperature 30.5): 185.878
- Thermoflour melting curve fluorescence of Notum ([3]; compound 500 µM, Temperature 31.5): 116.312
- Thermoflour melting curve fluorescence of Notum ([3]; compound 500 µM, Temperature 32.5): 36.8288
- Thermoflour melting curve fluorescence of Notum ([3]; compound 500 µM, Temperature 33.5): -33.9223
- Thermoflour melting curve fluorescence of Notum ([3]; compound 500 µM, Temperature 34.5): -98.3184
- Thermoflour melting curve fluorescence of Notum ([3]; compound 500 µM, Temperature 35.5): -160.078
- Thermoflour melting curve fluorescence of Notum ([3]; compound 500 µM, Temperature 36.5): -227.439
- Thermoflour melting curve fluorescence of Notum ([3]; compound 500 µM, Temperature 37.5): -299.113
- Thermoflour melting curve fluorescence of Notum ([3]; compound 500 µM, Temperature 38.5): -356.595
- Thermoflour melting curve fluorescence of Notum ([3]; compound 500 µM, Temperature 39.5): -384.234
- Thermoflour melting curve fluorescence of Notum ([3]; compound 500 µM, Temperature 40.5): -401.667
- Thermoflour melting curve fluorescence of Notum ([3]; compound 500 µM, Temperature 41.5): -422.587
- Thermoflour melting curve fluorescence of Notum ([3]; compound 500 µM, Temperature 42.5): -436.447
- Thermoflour melting curve fluorescence of Notum ([3]; compound 500 µM, Temperature 43.5): -433.953
- Thermoflour melting curve fluorescence of Notum ([3]; compound 500 µM, Temperature 44.5): -407.23
- Thermoflour melting curve fluorescence of Notum ([3]; compound 500 µM, Temperature 45.5): -370.506
- Thermoflour melting curve fluorescence of Notum ([3]; compound 500 µM, Temperature 46.5): -329.743
- Thermoflour melting curve fluorescence of Notum ([3]; compound 500 µM, Temperature 47.5): -279.561
- Thermoflour melting curve fluorescence of Notum ([3]; compound 500 µM, Temperature 48.5): -224.386
- Thermoflour melting curve fluorescence of Notum ([3]; compound 500 µM, Temperature 49.5): -154.955
- Thermoflour melting curve fluorescence of Notum ([3]; compound 500 µM, Temperature 50.5): -68.5872
- Thermoflour melting curve fluorescence of Notum ([3]; compound 500 µM, Temperature 51.5): 21.0565
- Thermoflour melting curve fluorescence of Notum ([3]; compound 500 µM, Temperature 52.5): 104.977
- Thermoflour melting curve fluorescence of Notum ([3]; compound 500 µM, Temperature 53.5): 203.138
- Thermoflour melting curve fluorescence of Notum ([3]; compound 500 µM, Temperature 54.5): 335.417
- Thermoflour melting curve fluorescence of Notum ([3]; compound 500 µM, Temperature 55.5): 489.845
- Thermoflour melting curve fluorescence of Notum ([3]; compound 500 µM, Temperature 56.5): 650.176
- Thermoflour melting curve fluorescence of Notum ([3]; compound 500 µM, Temperature 57.5): 838.955
- Thermoflour melting curve fluorescence of Notum ([3]; compound 500 µM, Temperature 58.5): 1115.22
- Thermoflour melting curve fluorescence of Notum ([3]; compound 500 µM, Temperature 59.5): 1497.71
- Thermoflour melting curve fluorescence of Notum ([3]; compound 500 µM, Temperature 60.5): 2046.51
- Thermoflour melting curve fluorescence of Notum ([3]; compound 500 µM, Temperature 61.5): 2842.67
- Thermoflour melting curve fluorescence of Notum ([3]; compound 500 µM, Temperature 62.5): 4016.35
- Thermoflour melting curve fluorescence of Notum ([3]; compound 500 µM, Temperature 63.5): 5616.14
- Thermoflour melting curve fluorescence of Notum ([3]; compound 500 µM, Temperature 64.5): 7625.37
- Thermoflour melting curve fluorescence of Notum ([3]; compound 500 µM, Temperature 65.5): 9844.37
- Thermoflour melting curve fluorescence of Notum ([3]; compound 500 µM, Temperature 66.5): 11980.7
- Thermoflour melting curve fluorescence of Notum ([3]; compound 500 µM, Temperature 67.5): 13878
- Thermoflour melting curve fluorescence of Notum ([3]; compound 500 µM, Temperature 68.5): 15429.9
- Thermoflour melting curve fluorescence of Notum ([3]; compound 500 µM, Temperature 69.5): 16655.6
- Thermoflour melting curve fluorescence of Notum ([3]; compound 500 µM, Temperature 70.5): 17623.3
- Thermoflour melting curve fluorescence of Notum ([3]; compound 500 µM, Temperature 71.5): 18396.4
- Thermoflour melting curve fluorescence of Notum ([3]; compound 500 µM, Temperature 72.5): 18998.9
- Thermoflour melting curve fluorescence of Notum ([3]; compound 500 µM, Temperature 73.5): 19494.1
- Thermoflour melting curve fluorescence of Notum ([3]; compound 500 µM, Temperature 74.5): 19890
- Thermoflour melting curve fluorescence of Notum ([3]; compound 500 µM, Temperature 75.5): 20222.9
- Thermoflour melting curve fluorescence of Notum ([3]; compound 500 µM, Temperature 76.5): 20511.4
- Thermoflour melting curve fluorescence of Notum ([3]; compound 500 µM, Temperature 77.5): 20720.5
- Thermoflour melting curve fluorescence of Notum ([3]; compound 500 µM, Temperature 78.5): 20881
- Thermoflour melting curve fluorescence of Notum ([3]; compound 500 µM, Temperature 79.5): 21035.4
- Thermoflour melting curve fluorescence of Notum ([3]; compound 500 µM, Temperature 80.5): 21171.7
- Thermoflour melting curve fluorescence of Notum ([3]; compound 500 µM, Temperature 81.5): 21266.6
- Thermoflour melting curve fluorescence of Notum ([3]; compound 500 µM, Temperature 82.5): 21332.1
- Thermoflour melting curve fluorescence of Notum ([3]; compound 500 µM, Temperature 83.5): 21375.7
- Thermoflour melting curve fluorescence of Notum ([3]; compound 500 µM, Temperature 84.5): 21418.3
- Thermoflour melting curve fluorescence of Notum ([3]; compound 500 µM, Temperature 85.5): 21484.5
- Thermoflour melting curve fluorescence of Notum ([3]; compound 500 µM, Temperature 86.5): 21557.9
- Thermoflour melting curve fluorescence of Notum ([3]; compound 500 µM, Temperature 87.5): 21630
- Thermoflour melting curve fluorescence of Notum ([3]; compound 500 µM, Temperature 88.5): 21668.9
- Thermoflour melting curve fluorescence of Notum ([3]; compound 500 µM, Temperature 89.5): 21631
- Thermoflour melting curve fluorescence of Notum ([3]; compound 500 µM, Temperature 90.5): 21594.2
- Thermoflour melting curve fluorescence of Notum ([3]; compound 500 µM, Temperature 91.5): 21585.2
- Thermoflour melting curve fluorescence of Notum ([3]; compound 500 µM, Temperature 92.5): 21573.1
- Thermoflour melting curve fluorescence of Notum ([3]; compound 500 µM, Temperature 93.5): 21559.5
- Thermoflour melting curve fluorescence of Notum ([3]; compound 500 µM, Temperature 94.5): 21527.2
- Thermoflour melting curve fluorescence of Notum ([3]; compound 500 µM, Temperature 95.5): 21485.4
- Thermoflour melting curve fluorescence of Notum ([3]; compound 500 µM, Temperature 96.5): 21486.2
- Thermoflour melting curve fluorescence of Notum ([3]; compound 500 µM, Temperature 97.5): 21505.1
- ∆Tm of Notum ([3]; compound 500 µM, versus Notum without compounds): 2.8 °C
- Adverse effects on the brain [4]: does not appear to have adverse effects on the brain
